The values below are quoted from earlier work in US20230218659A1, “Selenium-Based Compositions and Therapeutic Methods” (Hess Pharmaceuticals, Inc, priority 2020, published 2023).

For this data set the following is noted: 200 µg/day selenium with or without 400 IU/day vitamin E; 35,533 men aged 50 years or older; after 5.5 years.

Consider `[Se]` [selenium], for which the “association between prostate cancer risk and supplementation” value is on record as “no association”.
